According to patent US12077503B2, “Substituted cyclic amides and their use as herbicides” (FMC CORPORATION, priority 2015, dated 2024):

Experiments:
Format in all cases: in vivo
Kochia (Kochia scoparia) [1] = assay: Test A preemergence; conditions: Bassia scoparia, pre-emergence, 240 h, 0 to 100 scale where 0 is no effect and 100 is complete control, read-out: Kochia plant response rating
Procedure, shortened: (§1)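 Greenhouse, ~10 d after spray; visual injury vs untreated controls, 0 = no effect, 100 = complete control. Preemergence: directed soil spray over planted seeds. Postemergence: plants 2–10 cm, 1–2 leaf stage. Loam/sand blend. Compound in non-phytotoxic solvent with surfactant.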

[2] = test system: barnyardgrass (Echinochloa crus-galli); assay: Test A preemergence; conditions: Echinochloa crus-galli, pre-emergence, 240 h, 0 to 100 scale where 0 is no effect and 100 is complete control, read-out: Barnyardgrass plant response rating
Procedure, shortened: as §1

[3] = test system: giant foxtail (Setaria faberii); assay: Test A preemergence; conditions: Setaria faberi, pre-emergence, 240 h, 0 to 100 scale where 0 is no effect and 100 is complete control, read-out: Foxtail, Giant plant response rating
Procedure, shortened: as §1

[4] = test system: pigweed (Amaranthus retroflexus); assay: Test A preemergence; conditions: Amaranthus retroflexus, pre-emergence, 240 h, 0 to 100 scale where 0 is no effect and 100 is complete control, read-out: Pigweed plant response rating
[5] = test system: ragweed (common ragweed, Ambrosia elatior); assay: Test A preemergence; conditions: Ambrosia artemisiifolia, pre-emergence, 240 h, 0 to 100 scale where 0 is no effect and 100 is complete control, read-out: Ragweed plant response rating
Procedure, shortened: as §1

[6] = test system: ryegrass, Italian (Italian ryegrass, Lolium multiflorum); assay: Test A preemergence; conditions: Lolium multiflorum, pre-emergence, 240 h, 0 to 100 scale where 0 is no effect and 100 is complete control, read-out: Ryegrass, Italian plant response rating
Procedure, shortened: as §1

[7] = test system: Galium (catchweed bedstraw, Galium aparine); assay: Test A postemergence; conditions: Galium, post-emergence, 240 h, read-out: Galium plant response rating (0 to 100 scale)
Procedure, shortened: as §1

Kochia (Kochia scoparia) [8] = assay: Test A postemergence; conditions: Bassia scoparia, post-emergence, 240 h, read-out: Kochia plant response rating (0 to 100 scale)
Procedure, shortened: as §1

[9] = test system: barnyardgrass (Echinochloa crus-galli); assay: Test A postemergence; conditions: Echinochloa crus-galli, post-emergence, 240 h, read-out: Barnyardgrass plant response rating (0 to 100 scale)
Procedure, shortened: as §1

[10] = test system: blackgrass (Alopecurus myosuroides); assay: Test A postemergence; conditions: Alopecurus myosuroides, post-emergence, 240 h, read-out: Blackgrass plant response rating (0 to 100 scale)
Procedure, shortened: as §1

corn (Zea mays) = assay: Test A postemergence; conditions: Zea mays, post-emergence, 240 h, read-out: Corn plant response rating (0 to 100 scale)
Procedure, shortened: as §1

[11] = test system: giant foxtail (Setaria faberii); assay: Test A postemergence; conditions: Setaria faberi, post-emergence, 240 h, read-out: Foxtail, Giant plant response rating (0 to 100 scale)
Procedure, shortened: as §1

[12] = test system: pigweed (Amaranthus retroflexus); assay: Test A postemergence; conditions: Amaranthus retroflexus, post-emergence, 240 h, read-out: Pigweed plant response rating (0 to 100 scale)
Procedure, shortened: as §1

[13] = test system: ragweed (common ragweed, Ambrosia elatior); assay: Test A postemergence; conditions: Ambrosia artemisiifolia, post-emergence, 240 h, read-out: Ragweed plant response rating (0 to 100 scale)
Procedure, shortened: as §1

[14] = test system: ryegrass, Italian (Italian ryegrass, Lolium multiflorum); assay: Test A postemergence; conditions: Lolium multiflorum, post-emergence, 240 h, read-out: Ryegrass, Italian plant response rating (0 to 100 scale)
Procedure, shortened: as §1

[15] = test system: wheat (Triticum aestivum); assay: Test A postemergence; conditions: Triticum aestivum, post-emergence, 240 h, read-out: Wheat plant response rating (0 to 100 scale)
Procedure, shortened: as §1

[16] = test system: barnyardgrass (Echinochloa crus-galli); assay: Test B flooded paddy test; conditions: Echinochloa crus-galli, 250 g ai/ha, Flood; 0 to 100 scale where 0 is no effect and 100 is complete control; read-out: Barnyardgrass plant response rating
Procedure, shortened: (§2)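 Evaluation by eye, against controls, occurred 13–15 d post-treatment in a greenhouse, using a 0 (no effect) to 100 (complete control) scale. Application was into the paddy water, 3 cm deep over the soil, on 2-leaf plants.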

[17] = test system: ducksalad (Heteranthera limosa); assay: Test B flooded paddy test; conditions: Heteranthera limosa, 250 g ai/ha, Flood; 0 to 100 scale where 0 is no effect and 100 is complete control; read-out: Ducksalad plant response rating
Procedure, shortened: as §2

rice (Oryra sativa) = assay: Test B flooded paddy test; conditions: Oryza sativa, 250 g ai/ha, Flood; 0 to 100 scale where 0 is no effect and 100 is complete control; read-out: Rice plant response rating
Procedure, shortened: as §2

[18] = test system: sedge, umbrella (small-flower umbrella sedge, Cyperus difformis); assay: Test B flooded paddy test; conditions: Cyperus difformis, 250 g ai/ha, Flood; 0 to 100 scale where 0 is no effect and 100 is complete control; read-out: Sedge, Umbrella plant response rating
Procedure, shortened: as §2

[19] = 125 g ai/ha, preemergence, visual injury rating, approximately 10 d
[20] = 125 g ai/ha, postemergence, visual injury vs untreated controls after approx. 10 d, 0 = no effect, 100 = complete control
[21] = Postemergence, 31 g ai/ha, 0 is no effect, 100 is complete control

## N#Cc1ccc([C@H]2CNC(=O)[C@@H]2C(=O)Nc2ccccc2F)cc1F [Compound 1191]
Kochia (Kochia scoparia) [1]; 31 g ai/ha, Preemergence
  pest or weed control at 31 g/ha: 0%
Kochia (Kochia scoparia) [1]; [19]
  pest or weed control at 125 g/ha: 0%
[2]; 31 g ai/ha, Preemergence
  pest or weed control at 31 g/ha: 0%
[2]; [19]
  pest or weed control at 125 g/ha: 0%
[3]; 31 g ai/ha, Preemergence
  pest or weed control at 31 g/ha: 0%
[3]; [19]
  pest or weed control at 125 g/ha: 0%
[4]; 31 g ai/ha, Preemergence
  pest or weed control at 31 g/ha: 0%
[4]; [19]
  pest or weed control at 125 g/ha: 0%
[5]; 31 g ai/ha, Preemergence
  pest or weed control at 31 g/ha: 0%
[5]; [19]
  pest or weed control at 125 g/ha: 0%
[6]; 31 g ai/ha, Preemergence
  pest or weed control at 31 g/ha: 0%
[6]; [19]
  pest or weed control at 125 g/ha: 0%
[7]; [20]
  pest or weed control at 125 g/ha: 0%
[7]; [21]
  pest or weed control at 31 g/ha: 0%
Kochia (Kochia scoparia) [8]; [20]
  pest or weed control at 125 g/ha: 0%
Kochia (Kochia scoparia) [8]; [21]
  pest or weed control at 31 g/ha: 0%
[9]; [20]
  pest or weed control at 125 g/ha: 0%
[9]; [21]
  pest or weed control at 31 g/ha: 0%
[10]; [20]
  pest or weed control at 125 g/ha: 0%
[10]; [21]
  pest or weed control at 31 g/ha: 0%
Corn (Zea mays); [20]
  plant injury at 125 g/ha: 0%
Corn (Zea mays); [21]
  plant injury at 31 g/ha: 0%
[11]; [20]
  pest or weed control at 125 g/ha: 0%
[11]; [21]
  pest or weed control at 31 g/ha: 0%
[12]; [20]
  pest or weed control at 125 g/ha: 0%
[12]; [21]
  pest or weed control at 31 g/ha: 0%
[13]; [20]
  pest or weed control at 125 g/ha: 0%
[13]; [21]
  pest or weed control at 31 g/ha: 0%
[14]; [20]
  pest or weed control at 125 g/ha: 0%
[14]; [21]
  pest or weed control at 31 g/ha: 0%
[15]; [20]
  plant injury at 125 g/ha: 0%
[15]; [21]
  plant injury at 31 g/ha: 0%
[16]
  pest or weed control at 250 g/ha: 0%
[17]
  pest or weed control at 250 g/ha: 90%
Rice (Oryra sativa)
  pest or weed control at 250 g/ha: 10%
[18]
  pest or weed control at 250 g/ha: 0%
